PMC5623949, “Exploiting the 2-Amino-1,3,4-thiadiazole Scaffold To Inhibit Trypanosoma brucei Pteridine Reductase in Support of Early-Stage Drug Discovery” (ACS Omega, 2017)
Like-named read-outs stand apart in the source and are kept apart here.

What was measured:
[1] = in vitro; parameters: cytotoxicity, per cent cell growth of WI-38 fibroblasts; conditions: human, wi-38 cells; read-out: % cell growth W1-38 at 10uM
Experimental: (§1) Independent of the effect of any antiparasitic potential of compounds, they were evaluated using a panel of early-toxicity assays comprising cytotoxicity (A549, human lung adenocarcinoma epithelial cell line and WI-38, human lung fibroblasts), mitochondrial toxicity (786-O, human renal carcinoma cell line), hERG inhibition,[31] cytochrome P450 inhibition (CYP1A2, CYP2C9, CYP2C19, CYP2D6, and CYP3A4),[31] and Aurora B kinase inhibition. […] For the two compounds active against TbPTR1 (4m and 4o), IC50 against hERG, cytochrome P450, and mitochondrial toxicity were determined (reported in Supporting Information). We observed that the dose of compounds 4m, 4o, 4c, and 3k was 4 μM in the potentiation assays. […] In the case of hERG, CYP2D6, CYP2A9, CYP2C19, and mitochondrial toxicity, there is a selectivity index of around 3–4 fold, thus showing an acceptable profile.  Figure 10 Summary heat map of the in vitro assays to determine possible liability issues for all synthesized compounds. Assays were performed to assess inhibition of hERG and five CYP isoforms (1A2, 2C9, 2C19, 2D6, and 3A4), growth inhibition of A549 and W1-38 cell lines, and mitochondrial toxicity at 10 μM. The hDHFR inhibition was determined at 100 μM. The data, expressed as percentage values, were organized by adopting a color code for rapid and intuitive visualization. The ideal compound should have all tiles blue, indicating a safe toxicological profile for progressing into the development pipeline. The cells are colored from blue (100% of cell growth at the tested concentration) to red (0% of cell growth at the tested concentration) for A549 and W1-38 and from blue (0% of inhibitory activity at the tested concentration) to red (100% of inhibitory activity at the tested concentration) for CYP isoforms, hERG, hDHFR, and mitochondrial toxicity.

[2] = test system: 786-O; assay: cells; parameters: mitochondrial toxicity in 786-O renal carcinoma cells; conditions: Homo sapiens, 786-0; mitochondrial toxicity
Experimental: as §1

[3] = biological target: T1, hDHFR (Homo sapiens, UniProt P00374); assay: biochemical; parameters: human DHFR enzyme inhibition
T1 construct: gene DHFR
T1 sequence (P00374 1-187): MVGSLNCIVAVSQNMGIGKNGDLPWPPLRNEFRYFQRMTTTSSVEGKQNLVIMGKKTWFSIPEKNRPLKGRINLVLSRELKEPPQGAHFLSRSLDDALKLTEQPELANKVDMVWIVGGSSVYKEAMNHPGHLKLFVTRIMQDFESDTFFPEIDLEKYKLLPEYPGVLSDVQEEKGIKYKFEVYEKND
Experimental: Figure 10 Summary heat map of the in vitro assays to determine possible liability issues for all synthesized compounds. Assays were performed to assess inhibition of hERG and five CYP isoforms (1A2, 2C9, 2C19, 2D6, and 3A4), growth inhibition of A549 and W1-38 cell lines, and mitochondrial toxicity at 10 μM. The hDHFR inhibition was determined at 100 μM. The data, expressed as percentage values, were organized by adopting a color code for rapid and intuitive visualization. The ideal compound should have all tiles blue, indicating a safe toxicological profile for progressing into the development pipeline. The cells are colored from blue (100% of cell growth at the tested concentration) to red (0% of cell growth at the tested concentration) for A549 and W1-38 and from blue (0% of inhibitory activity at the tested concentration) to red (100% of inhibitory activity at the tested concentration) for CYP isoforms, hERG, hDHFR, and mitochondrial toxicity.

[4] = biological target: CYP2C9 (Homo sapiens, UniProt P11712); assay: in vitro; parameters: cytochrome P450 isoform inhibition liability assay
Chain of CYP2C9 (P11712 whole entry, canonical isoform): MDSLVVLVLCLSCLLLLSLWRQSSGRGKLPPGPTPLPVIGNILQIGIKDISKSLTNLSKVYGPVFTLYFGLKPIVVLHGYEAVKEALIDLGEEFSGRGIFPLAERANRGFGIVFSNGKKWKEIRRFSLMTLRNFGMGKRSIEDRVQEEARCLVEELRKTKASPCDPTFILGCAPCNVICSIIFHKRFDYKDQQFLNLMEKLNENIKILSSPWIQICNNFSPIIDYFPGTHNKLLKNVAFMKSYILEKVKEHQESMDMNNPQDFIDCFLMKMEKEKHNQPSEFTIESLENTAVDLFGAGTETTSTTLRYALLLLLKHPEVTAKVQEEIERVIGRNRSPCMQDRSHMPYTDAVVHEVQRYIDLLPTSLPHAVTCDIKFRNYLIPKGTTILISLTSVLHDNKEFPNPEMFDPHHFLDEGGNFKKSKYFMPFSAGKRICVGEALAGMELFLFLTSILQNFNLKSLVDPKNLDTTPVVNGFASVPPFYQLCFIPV
Experimental: as §1

[5] = biological target: CYP3A4 (Homo sapiens, UniProt P08684); assay: in vitro; parameters: cytochrome P450 isoform inhibition liability assay
Chain of CYP3A4 (P08684 whole entry, canonical isoform): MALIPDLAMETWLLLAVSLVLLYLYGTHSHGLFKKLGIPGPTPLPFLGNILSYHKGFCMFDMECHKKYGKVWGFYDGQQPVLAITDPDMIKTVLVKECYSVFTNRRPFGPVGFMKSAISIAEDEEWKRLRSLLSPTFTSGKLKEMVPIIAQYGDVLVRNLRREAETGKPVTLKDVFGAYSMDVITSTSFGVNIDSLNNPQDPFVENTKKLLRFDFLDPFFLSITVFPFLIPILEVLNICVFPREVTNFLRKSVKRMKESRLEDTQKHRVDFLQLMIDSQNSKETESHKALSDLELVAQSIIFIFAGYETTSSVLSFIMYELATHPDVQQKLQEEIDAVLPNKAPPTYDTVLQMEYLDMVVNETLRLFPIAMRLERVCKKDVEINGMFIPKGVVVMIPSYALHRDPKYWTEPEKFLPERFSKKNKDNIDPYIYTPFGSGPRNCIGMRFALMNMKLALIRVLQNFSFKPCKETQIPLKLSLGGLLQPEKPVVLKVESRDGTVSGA
Experimental: as §1

[6] = biological target: T2, CYP1A2 (Homo sapiens, UniProt P05177); assay: in vitro; parameters: cytochrome P450 isoform inhibition liability assay
T2 sequence (P05177 1-516): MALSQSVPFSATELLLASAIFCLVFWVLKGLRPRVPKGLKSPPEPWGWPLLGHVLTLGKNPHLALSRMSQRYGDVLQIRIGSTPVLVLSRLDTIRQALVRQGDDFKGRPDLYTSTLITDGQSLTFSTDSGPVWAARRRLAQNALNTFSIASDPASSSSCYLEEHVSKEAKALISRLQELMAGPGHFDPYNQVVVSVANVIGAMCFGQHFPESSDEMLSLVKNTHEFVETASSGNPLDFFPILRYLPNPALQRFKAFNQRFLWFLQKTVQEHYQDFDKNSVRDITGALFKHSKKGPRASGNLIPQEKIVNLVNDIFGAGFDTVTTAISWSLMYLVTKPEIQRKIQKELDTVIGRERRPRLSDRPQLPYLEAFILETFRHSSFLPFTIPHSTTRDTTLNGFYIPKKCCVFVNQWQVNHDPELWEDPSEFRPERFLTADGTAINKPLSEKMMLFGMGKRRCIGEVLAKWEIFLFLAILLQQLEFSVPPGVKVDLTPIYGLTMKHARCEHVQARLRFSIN
Experimental: as §1

[7] = biological target: CYP2D6 (Homo sapiens, UniProt P10635); assay: in vitro; parameters: cytochrome P450 isoform inhibition liability assay
Chain of CYP2D6 (P10635 whole entry, canonical isoform): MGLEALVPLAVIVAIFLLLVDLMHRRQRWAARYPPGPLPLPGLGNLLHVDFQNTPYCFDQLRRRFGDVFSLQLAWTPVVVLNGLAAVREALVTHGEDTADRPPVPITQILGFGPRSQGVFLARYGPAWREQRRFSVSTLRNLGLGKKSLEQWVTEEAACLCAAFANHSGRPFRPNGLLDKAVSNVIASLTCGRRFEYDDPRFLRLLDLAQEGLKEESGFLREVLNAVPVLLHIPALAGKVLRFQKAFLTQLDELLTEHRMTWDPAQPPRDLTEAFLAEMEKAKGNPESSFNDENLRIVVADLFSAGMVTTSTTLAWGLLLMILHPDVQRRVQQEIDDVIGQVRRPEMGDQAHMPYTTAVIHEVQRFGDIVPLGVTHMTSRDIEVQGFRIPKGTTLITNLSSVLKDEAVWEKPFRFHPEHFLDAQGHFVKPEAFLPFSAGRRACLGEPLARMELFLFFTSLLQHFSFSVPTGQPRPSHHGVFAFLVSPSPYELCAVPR
Experimental: as §1

[8] = biological target: CYP2C19 (Homo sapiens, UniProt P33261); assay: in vitro; parameters: cytochrome P450 isoform inhibition liability assay
Chain of CYP2C19 (P33261 whole entry, canonical isoform): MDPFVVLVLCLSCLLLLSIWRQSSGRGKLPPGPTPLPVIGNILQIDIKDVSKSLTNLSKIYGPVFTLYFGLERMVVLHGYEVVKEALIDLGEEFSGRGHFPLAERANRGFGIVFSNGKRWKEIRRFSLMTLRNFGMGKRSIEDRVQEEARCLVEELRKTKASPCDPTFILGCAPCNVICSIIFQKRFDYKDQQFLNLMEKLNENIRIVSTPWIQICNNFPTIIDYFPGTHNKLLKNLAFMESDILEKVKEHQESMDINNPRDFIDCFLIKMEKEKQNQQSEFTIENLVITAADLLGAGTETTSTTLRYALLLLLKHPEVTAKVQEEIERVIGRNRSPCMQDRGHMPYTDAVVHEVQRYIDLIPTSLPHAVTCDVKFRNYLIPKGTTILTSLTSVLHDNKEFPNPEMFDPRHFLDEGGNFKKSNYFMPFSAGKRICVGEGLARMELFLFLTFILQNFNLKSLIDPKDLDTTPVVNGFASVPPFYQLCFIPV
Experimental: as §1

[9] = test system: T. b. brucei Lister 427 bloodstream forms; assay: In vitro activity against T. brucei (HTS SYBR Green I growth inhibition assay); format: cell-based, Trypanosoma brucei brucei; conditions: standard deviation within ±10% of the value; for inhibition at 50 µM / EC50: Trypanosoma brucei; for inhibition at 50 µM: read-out: % Inhibition T. brucei at 50 μM; for EC50: read-out: EC50 T. brucei
[10] = biological target: T3, TbPTR1 (Trypanosoma brucei brucei, UniProt O76290); assay: biochemical; conditions: for inhibition at 50 µM: 50 μM compound, read-out: % Inhibition TbPTR1 at 50 μM; for IC50: dose-response 0.001-100 μM
T3 construct: made in house
T3 sequence (O76290 1-268): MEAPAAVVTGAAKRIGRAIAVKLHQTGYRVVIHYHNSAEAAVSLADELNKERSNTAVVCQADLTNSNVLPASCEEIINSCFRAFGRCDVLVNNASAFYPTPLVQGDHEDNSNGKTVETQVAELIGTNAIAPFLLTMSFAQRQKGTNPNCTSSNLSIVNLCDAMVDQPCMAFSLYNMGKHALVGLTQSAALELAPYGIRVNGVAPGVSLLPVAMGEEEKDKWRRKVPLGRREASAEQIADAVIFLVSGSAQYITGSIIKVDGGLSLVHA

[11] = in vitro; parameters: cytotoxicity, per cent cell growth of A549 cells; conditions: human, a549 cells; read-out: % cell growth A549 at 10uM
Experimental: as §1

[12] = biological target: T4, hERG (Homo sapiens, UniProt Q12809); parameters: hERG inhibition liability assay
T4 construct: gene KCNH2
T4 sequence (Q12809 whole entry): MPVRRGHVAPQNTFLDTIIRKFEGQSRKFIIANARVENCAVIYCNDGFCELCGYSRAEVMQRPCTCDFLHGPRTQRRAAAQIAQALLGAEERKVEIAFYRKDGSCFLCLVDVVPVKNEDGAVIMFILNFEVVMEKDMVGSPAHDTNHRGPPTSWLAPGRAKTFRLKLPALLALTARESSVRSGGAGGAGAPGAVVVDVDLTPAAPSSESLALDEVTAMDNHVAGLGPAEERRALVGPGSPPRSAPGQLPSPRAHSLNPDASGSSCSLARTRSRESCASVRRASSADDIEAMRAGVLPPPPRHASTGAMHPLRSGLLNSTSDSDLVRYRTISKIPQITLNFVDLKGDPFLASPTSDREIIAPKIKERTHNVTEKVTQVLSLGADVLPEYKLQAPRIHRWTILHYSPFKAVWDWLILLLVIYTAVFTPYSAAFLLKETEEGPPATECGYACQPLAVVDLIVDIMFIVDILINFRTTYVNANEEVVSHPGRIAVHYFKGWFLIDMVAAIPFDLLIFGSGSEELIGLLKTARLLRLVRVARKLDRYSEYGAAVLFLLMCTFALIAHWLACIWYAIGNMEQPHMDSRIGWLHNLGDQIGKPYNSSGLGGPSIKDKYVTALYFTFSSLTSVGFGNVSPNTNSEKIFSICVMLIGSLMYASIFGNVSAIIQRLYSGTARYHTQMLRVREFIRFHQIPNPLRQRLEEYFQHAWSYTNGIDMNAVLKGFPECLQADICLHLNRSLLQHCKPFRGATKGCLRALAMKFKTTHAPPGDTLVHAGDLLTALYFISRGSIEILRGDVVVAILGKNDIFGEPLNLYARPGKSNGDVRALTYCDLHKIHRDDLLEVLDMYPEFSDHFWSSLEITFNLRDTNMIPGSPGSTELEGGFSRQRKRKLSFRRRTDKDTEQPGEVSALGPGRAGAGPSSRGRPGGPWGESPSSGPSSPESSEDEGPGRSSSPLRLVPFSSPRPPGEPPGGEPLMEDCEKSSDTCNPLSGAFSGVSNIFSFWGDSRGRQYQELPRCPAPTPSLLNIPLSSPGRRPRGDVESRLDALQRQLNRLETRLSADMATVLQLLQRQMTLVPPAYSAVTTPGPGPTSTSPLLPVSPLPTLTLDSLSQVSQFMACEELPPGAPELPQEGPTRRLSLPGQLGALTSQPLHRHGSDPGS
Experimental: as §1

Structure (SMILES)	viability at 10 µM [1] [%]	inhibition at 10 µM [2] [%]	inhibition at 10 µM [3] [%]	inhibition at 10 µM [4] [%]	inhibition at 10 µM [5] [%]	inhibition at 10 µM [6] [%]	inhibition at 10 µM [7] [%]	inhibition at 10 µM [8] [%]	inhibition at 50 µM ([9]; 50 μM) [%]	inhibition at 50 µM [10] [%]	viability at 10 µM [11] [%]	inhibition at 10 µM [12] [%]	inhibition at 100 µM [3] [%]	% Inhibition T. brucei at 50 μM ([9]; 50 μM) [%]	EC50 [9] [µM]	IC50 [10] [µM]
Nc1nnc(-c2ccc(-c3nnc(N)s3)c(N)c2)s1 [1o]	103 ± 1.8	-6.1 ± 4.3	12	-4.2 ± 4.2	-0.7 ± 4.4	9.5 ± 4.2	-38 ± 5.7	-28.3 ± 16	1.6	23.4 ± 0.1	118 ± 9.4	-1.9 ± 4.9				
Nc1nnc(Cc2ccccc2)s1 [3b]	120 ± 1.7	-7.4 ± 11.1		-20.4 ± 1.8	-23.7 ± 5.9	-10.2 ± 1.6	-41.7 ± 3.9	-42.6 ± 5.5	< 0	8.1 ± 0.2	125 ± 4.8	11.1 ± 5.2	6			
COc1cccc(CNc2nnc(N)s2)c1 [4i]	129 ± 14.1	-15.3 ± 24.3		33.5 ± 1.7	87.7 ± 0.4	15.9 ± 1.1	105.2 ± 0.1	45.9 ± 0.8		31 ± 1.3	107 ± 5.8	108 ± 9.6	28	95.6	16	56
Nc1nnc(/C=C/c2ccccc2)s1 [3h]	111 ± 42	-1.3 ± 6.6	15	4.1 ± 5.9	45.9 ± 5.5	25.2 ± 1.1	-22.1 ± 8	7.2 ± 9.8	82.7	34.3 ± 1.2	138 ± 5.6	58.7 ± 4.9			58	
Nc1nnc(NCc2ccc(Cl)c(Cl)c2)s1 [4e]	68.5 ± 18.8	3.6 ± 8.5		17.6 ± 0.9	27.4 ± 6.8	29.1 ± 3.4	99 ± 0.6	36.8 ± 0.9	< 0	48.5 ± 2.1	106 ± 2.7	75.6 ± 4.4	24			31
